#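 Exposure lasted 48 hours, with cells grown in 96-well plates and compounds tested at five concentrations. At the GI50, growth is halved. TGI denotes the concentration required for complete inhibition of growth.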
# Assays:
# Assay in all cases: NCI-60 cell line screen, 48 h
# [1] = test system: RPMI-8226 leukemia
# [2] = test system: OVCAR-8 ovarian
# [3] = test system: SR leukemia
# [4] = test system: M14 melanoma
# [5] = test system: OVCAR-4 ovarian
# [6] = test system: SK-OV-3 ovarian
# [7] = test system: IGROV1 ovarian
# [8] = test system: PC-3 prostate
# [9] = test system: LOX IMVI melanoma
# [10] = test system: ACHN renal
# [11] = test system: MCF7 breast
# [12] = test system: MDA-MB-231 breast
# [13] = test system: HCT-15 colon
# [14] = test system: SF-295 CNS
# [15] = test system: HL-60(TB) leukemia
# [16] = test system: MOLT-4 leukemia
# [17] = test system: OVCAR-5 ovarian
# [18] = test system: SK-MEL-2 melanoma
# [19] = test system: MALME-3M melanoma
# [20] = test system: SNB-19 CNS
# [21] = test system: SNB-75 CNS
# [22] = test system: OVCAR-3 ovarian
# [23] = test system: SK-MEL-28 melanoma
# [24] = test system: DU-145 prostate
# [25] = test system: CAKI-1 renal
# [26] = test system: MDA-MB-435
# [27] = test system: A549 NSCLC
# [28] = test system: NCI/ADR-RES ovarian
# [29] = test system: HT29 colon
# [30] = test system: NCI-H23 lung
# [31] = test system: UO-31 renal
# [32] = test system: T-47D breast
# [33] = test system: NCI-H460 lung
# [34] = test system: SF-539 CNS
# [35] = test system: KM12 colon
# [36] = test system: NCI-H226 lung
# [37] = test system: COLO 205 colon
# [38] = test system: NCI-H522 lung
# [39] = test system: HS 578T breast
# [40] = test system: SN12C renal
# [41] = test system: UACC-62 melanoma
# [42] = test system: U251 CNS
# [43] = test system: SF-268 CNS
# [44] = test system: 786-0 renal
# [45] = test system: CCRF-CEM leukemia
# [46] = test system: SW-620 colon
# [47] = test system: HCC-2998 colon
# [48] = test system: HOP-92 NSCLC
# [49] = test system: RXF 393 renal
# [50] = test system: TK-10 renal
# [51] = test system: UACC-257 melanoma
# [52] = test system: K-562 leukemia
# [53] = test system: BT-549 breast
# [54] = test system: SK-MEL-5 melanoma
# [55] = test system: EKVX NSCLC
# [56] = test system: HOP-62 NSCLC
smiles,measurement,setting,value
COc1cc(/C=C\[N+](=O)[O-])ccc1OCc1ccccc1,GI50,[1],0.43 µM
same,TGI,[1],2.73 µM
same,GI50,[2],2.91 µM
same,TGI,[2],9.56 µM
same,GI50,[3],1.46 µM
same,TGI,[3],5.27 µM
same,GI50,[4],1.65 µM
same,TGI,[4],4.31 µM
same,GI50,[5],3.07 µM
same,TGI,[5],13.1 µM
same,GI50,[6],4.65 µM
same,TGI,[6],15.2 µM
same,GI50,[7],2.48 µM
same,TGI,[7],7.6 µM
same,GI50,[8],3.5 µM
same,TGI,[8],25.4 µM
same,GI50,[9],1 µM
same,TGI,[9],2.3 µM
same,GI50,[10],1.99 µM
same,TGI,[10],4.36 µM
same,GI50,[11],1.44 µM
same,TGI,[11],3.27 µM
same,GI50,[12],1.85 µM
same,TGI,[12],5.55 µM
same,GI50,[13],1.72 µM
same,TGI,[13],3.51 µM
same,GI50,[14],4.07 µM
same,TGI,[14],18.8 µM
same,GI50,[15],2.48 µM
same,TGI,[15],6.16 µM
same,GI50,[16],2.7 µM
same,TGI,[16],7.61 µM
same,GI50,[17],3.29 µM
same,TGI,[17],13.7 µM
same,GI50,[18],3.67 µM
same,TGI,[18],14.6 µM
same,GI50,[19],2.54 µM
same,TGI,[19],9.38 µM
same,GI50,[20],2.64 µM
same,TGI,[20],8.41 µM
same,GI50,[21],1.63 µM
same,TGI,[21],6.79 µM
same,GI50,[22],1.62 µM
same,TGI,[22],3.71 µM
same,GI50,[23],2.08 µM
same,TGI,[23],4.5 µM
same,GI50,[24],1.8 µM
same,TGI,[24],3.52 µM
same,GI50,[25],3.05 µM
same,TGI,[25],13.2 µM
same,GI50,[26],2.37 µM
same,TGI,[26],10.3 µM
same,GI50,[27],3.17 µM
same,TGI,[27],10.5 µM
same,GI50,[28],3.5 µM
same,TGI,[28],24.9 µM
same,GI50,[29],1.94 µM
same,TGI,[29],4 µM
same,GI50,[30],2.07 µM
same,TGI,[30],5.26 µM
same,GI50,[31],1.54 µM
same,TGI,[31],3.06 µM
same,GI50,[32],2.25 µM
same,TGI,[32],7.44 µM
same,GI50,[33],3.98 µM
same,TGI,[33],15.9 µM
same,GI50,[34],2.09 µM
same,TGI,[34],4.18 µM
same,GI50,[35],3.06 µM
same,TGI,[35],10.8 µM
same,GI50,[36],2.26 µM
same,TGI,[36],5.47 µM
same,GI50,[37],1.67 µM
same,TGI,[37],3.37 µM
same,GI50,[38],2.04 µM
same,TGI,[38],6.62 µM
same,GI50,[39],3.81 µM
same,TGI,[39],> 100 µM
same,GI50,[40],2.77 µM
same,TGI,[40],8.42 µM
same,GI50,[41],1.7 µM
same,TGI,[41],4.67 µM
same,GI50,[42],1.55 µM
same,TGI,[42],3.01 µM
same,GI50,[43],2.83 µM
same,TGI,[43],11.5 µM
same,GI50,[44],1.84 µM
same,TGI,[44],3.74 µM
same,GI50,[45],3.13 µM
same,TGI,[45],11.5 µM
same,GI50,[46],1.49 µM
same,TGI,[46],4.02 µM
same,GI50,[47],1.86 µM
same,TGI,[47],3.63 µM
same,GI50,[48],12.5 µM
same,TGI,[48],31.4 µM
same,GI50,[49],1.8 µM
same,TGI,[49],3.73 µM
same,GI50,[50],1.93 µM
same,TGI,[50],5.27 µM
same,GI50,[51],2.08 µM
same,TGI,[51],5.83 µM
same,GI50,[52],2.06 µM
same,TGI,[52],11.1 µM
same,GI50,[53],1.58 µM
same,TGI,[53],3.3 µM
same,GI50,[54],1.4 µM
same,TGI,[54],3.05 µM
same,GI50,[55],3.71 µM
same,TGI,[55],17.6 µM
same,GI50,[56],2.35 µM
same,TGI,[56],6.58 µM

# Source: PubChem BioAssay (NCI)
